Reference: US20260184726A1, “HETEROCYCLIC COMPOUNDS AS KINASE INHIBITORS, COMPOSITIONS, AND METHODS OF USE THEREOF” (JS INNOMED HOLDINGS LTD., priority 2022, published 2026)

Legend:
human RET kinase = target: T1, human RET kinase (Homo sapiens, UniProt P07949); experiment: RET Kinase Assay (mobility shift assay, ATP at Km); assay type: biochemical; settings: 23 μM ATP (Km), read-out: RET Enzymatic Activity
T1 construct: purchased Carna 08-159
Procedure: Compounds were tested by Mobility shift assay with ATP concentration at Km. The assay used human RET kinase (Carna 08-159). Test compounds were prepared and diluted in DMSO in 3-fold serial dilutions to 50× of the final testing concentrations. The compounds were then further diluted to 5× by the kinase reaction buffer (50 mM HEPES pH 7.5, 0.0015% Brij-35). The enzymatic reaction for compound testing was performed in a white 384-well polypropylene plate (Corning 3573) with a total reaction volume of 25 μl containing 7 nM RET, 3 μM peptide substrate FAM-P2 (GL Biochem 112394), and 23 μM ATP (Sigma A7699-1G). The assay started with loading RET diluted in kinase reaction buffer to wells, followed by addition of equal volume of 5× compounds for 15-min incubation at the room temperature for pre-treatment. The enzymatic reaction was initiated by addition of mixture of the substrate and ATP prepared in kinase reaction buffer. After incubation at 28° C. for one hour, 25 μl of stopper buffer (a mixture of 100 mM HEPES pH 7.5 buffer, 0.015% Brij-35, 50 mM EDTA and 0.2% of coating reagent 3 (Cliper Lifesciences)). After 30 minutes of incubation at room temperature, the plate was read in a Caliper. Percent of control was calculated as the percentage of compound-treated vs 2% DMSO vehicle-treated. The dose-response curves were generated and the IC50 values were calculated by nonlinear sigmoid curve fitting using XLFit.

human Aurora B kinase = target: T2, human Aurora B kinase (Homo sapiens, UniProt Q96GD4); experiment: Aurora B Kinase Assay (mobility shift assay, ATP at Km); assay type: biochemical; settings: 15 μM ATP (Km), read-out: AurB Enzymatic Activity
T2 construct: purchased Carna 05-102
T2 sequence (Q96GD4 whole entry): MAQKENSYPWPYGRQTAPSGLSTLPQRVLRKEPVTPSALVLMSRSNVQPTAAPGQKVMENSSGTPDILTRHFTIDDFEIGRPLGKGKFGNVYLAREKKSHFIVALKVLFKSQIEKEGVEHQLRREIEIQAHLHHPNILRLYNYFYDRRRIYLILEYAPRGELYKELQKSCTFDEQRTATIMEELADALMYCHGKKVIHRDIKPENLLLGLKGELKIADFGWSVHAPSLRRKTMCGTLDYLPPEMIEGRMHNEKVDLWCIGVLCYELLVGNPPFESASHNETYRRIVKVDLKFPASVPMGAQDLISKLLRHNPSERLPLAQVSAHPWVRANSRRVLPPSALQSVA
T2 sequence (Q9NQS7 803-918 partner limits assumed): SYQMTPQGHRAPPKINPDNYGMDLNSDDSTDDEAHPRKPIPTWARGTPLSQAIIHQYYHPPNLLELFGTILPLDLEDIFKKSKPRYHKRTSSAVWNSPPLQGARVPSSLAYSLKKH
Procedure: Compounds were tested by Mobility shift assay with ATP concentration at Km. The assay used human Aurora B kinase (Carna 05-102). Test compounds were prepared and diluted in DMSO in 3-fold serial dilutions to 50× of the final testing concentrations. The compounds were then further diluted to 5× by the kinase reaction buffer (50 mM HEPES pH 7.5, 0.0015% Brij-35). The enzymatic reaction for compound testing was performed in a white 384-well polypropylene plate (Corning 3573) with a total reaction volume of 25 μl containing 9 nM Aurora B, 3 μM peptide substrate FAM-P21 (GL Biochem 116370), and 15 μM ATP (Sigma A7699-1G). The assay started with loading Aurora B diluted in kinase reaction buffer to wells, followed by addition of equal volume of 5× compounds for 15-min incubation at the room temperature for pre-treatment. The enzymatic reaction was initiated by addition of mixture of the substrate and ATP prepared in kinase reaction buffer. After incubation at 28° C. for one hour, 25 μl of stopper buffer (a mixture of 100 mM HEPES pH 7.5 buffer, 0.015% Brij-35, 50 mM EDTA and 0.2% of coating reagent 3 (Cliper Lifesciences)). After 30 minutes of incubation at room temperature, the plate was read in a Caliper. Percent of control was calculated as the percentage of compound-treated vs 2% DMSO vehicle-treated. The dose-response curves were generated and the IC50 values were calculated by nonlinear sigmoid curve fitting using XLFit.

BAF3 cells = experiment: BAF3 Cell Proliferation Assay (CellTiter-Glo, without RET driven, IL-3); assay type: cell-based; settings: Mus musculus; growth inhibition in BAF3 cells, 72 hours, with IL-3; read-out: BAF3 Cellular Activity
Procedure: Compounds disclosed herein were tested for the inhibition BAF3 cells proliferation without RET driven by CellTiter-Glo assay. In this assay, a complete media was prepared by adding 10% fetal bovine serum and 1 ng/ml IL-3 to RPMI-1640 medium (Life technology) for BAF3 cells. BAF3 cells were added to each of 88 wells of a 96 well plate at a seeding density of 2,000 cells/well/95 μL. The cells were allowed to attach to the plate by incubating at 37° C. for 24 hours. The compound was dissolved in DMSO (SIGMA). A solution of test compound was prepared in complete media by serial dilution to obtain the following concentrations: 200 μM, 66.7 μM, 22.2 μM, 7.4 μM, 2.5 μM, 0.82 μM, 0.27 μM, 0.091 μM and […]. The test compound solution (5 μL) was added to each of 80 cell-containing wells. The final concentrations of the compound were following: 10 μM, 3.33 μM, 1.11 μM, 0.37 μM, 0.12 μM, 0.041 μM, 0.014 μM, 0.0046 μM and 0.0015 μM. The final concentration of DMSO is 0.1%. To the 8 remaining cell-containing wells, only complete media (containing 0.1% DMSO) was added to form a control group in order to measure maximal proliferation. To the remaining 8 empty wells, complete media was added to for a vehicle control group in order to measure background. The plates were incubated at 37° C. for 72 hours. 50 μl of CellTiter-Glo® Reagent was added to each well. The contents were mixed for 2 minutes on an orbital shaker to induce cell lysis, and then were incubated at room temperature for 10 minutes to stabilize luminescent signal. Luminescence was recorded on Paradigm. Cell viability (CV %) was calculated relative to vehicle (DMSO) treated control wells. The IC50 was calculated using GraphPad Prism.

BAF3-KIF5B-RET cells = target: T3, BAF3-KIF5B-RET cells (Homo sapiens, UniProt P07949); experiment: BAF3-KIF5B-RET Cell Proliferation Assay (CellTiter-Glo); assay type: cell-based; settings: growth inhibition, 72 hours; Table 2; read-out: BA/F3-KIF5B-RET Cellular activity
T3 construct: fused on or other part: P33176 (Kinesin-1 heavy chain)
T3 sequence (P07949 whole entry, change not shown, the tested form may be a part): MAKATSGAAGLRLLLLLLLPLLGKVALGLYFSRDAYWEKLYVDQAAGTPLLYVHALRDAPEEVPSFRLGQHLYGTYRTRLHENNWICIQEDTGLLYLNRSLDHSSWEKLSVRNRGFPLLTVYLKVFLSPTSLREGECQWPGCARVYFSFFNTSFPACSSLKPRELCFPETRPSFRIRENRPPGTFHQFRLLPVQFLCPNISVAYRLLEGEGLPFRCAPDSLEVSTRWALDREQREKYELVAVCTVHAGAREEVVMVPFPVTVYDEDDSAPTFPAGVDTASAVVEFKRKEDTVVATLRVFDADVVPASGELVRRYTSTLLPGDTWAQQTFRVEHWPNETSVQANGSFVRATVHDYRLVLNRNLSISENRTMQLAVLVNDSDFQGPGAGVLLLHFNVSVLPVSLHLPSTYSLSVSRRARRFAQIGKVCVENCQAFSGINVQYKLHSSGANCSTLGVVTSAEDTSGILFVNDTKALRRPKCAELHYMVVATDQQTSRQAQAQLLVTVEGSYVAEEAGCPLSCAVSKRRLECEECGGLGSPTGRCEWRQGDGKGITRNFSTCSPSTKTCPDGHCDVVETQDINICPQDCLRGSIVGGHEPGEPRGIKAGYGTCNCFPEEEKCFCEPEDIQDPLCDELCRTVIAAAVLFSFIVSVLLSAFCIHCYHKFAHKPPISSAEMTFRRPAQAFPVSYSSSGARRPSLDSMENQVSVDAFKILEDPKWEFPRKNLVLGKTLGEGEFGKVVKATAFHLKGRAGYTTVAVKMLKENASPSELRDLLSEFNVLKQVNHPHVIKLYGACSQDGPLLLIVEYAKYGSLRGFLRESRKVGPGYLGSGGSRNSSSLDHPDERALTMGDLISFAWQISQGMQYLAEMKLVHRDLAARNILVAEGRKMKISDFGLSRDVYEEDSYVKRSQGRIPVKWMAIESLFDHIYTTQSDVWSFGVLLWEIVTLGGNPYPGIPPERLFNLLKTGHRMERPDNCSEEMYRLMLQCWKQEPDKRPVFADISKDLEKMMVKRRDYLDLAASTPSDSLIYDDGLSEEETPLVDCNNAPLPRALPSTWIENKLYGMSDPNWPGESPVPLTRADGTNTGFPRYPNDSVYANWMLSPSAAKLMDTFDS
Procedure: Compounds disclosed herein were tested for the inhibition of RET by a cancer cell proliferation assay commonly known as CellTiter-Glo assay. In this assay, a complete media was prepared by adding 10% fetal bovine serum to RPMI-1640 medium (Life technology) for RET-driven cancer cells (BAF3-FIF5B-RET, Ba/F3-KIF5B-RET-G810R, Ba/F3-TEL-RET-M918T or Ba/F3-KIF5B-RET-V804M). Individual RET-driven type of cells were added to each of 88 wells of a 96 well plate at a seeding density of 2,000 cells/well/95 μL. The cells were allowed to attach to the plate by incubating at 37° C. for 24 hours. The compound was dissolved in DMSO (SIGMA). A solution of test compound was prepared in complete media by serial dilution to obtain the following concentrations: 20 μM, 6.67 μM, 2.22 μM, 0.74 μM, 0.25 μM, 0.082 μM, 0.027 μM, 0.0091 μM and 0.0030 μM. The test compound solution (5 μL) was added to each of 80 cell-containing wells. The final concentrations of the compound were following: 1 μM, 0.33 μM, 0.11 μM, 0.037 μM, 0.012 μM, 0.0041 μM, 0.0014 μM, 0.00046 μM and 0.00015 μM. The final concentration of DMSO is 0.1%. To the 8 remaining cell-containing wells, only complete media (containing 0.1% DMSO) was added to form a control group in order to measure maximal proliferation. To the remaining 8 empty wells, complete media was added to for a vehicle control group in order to measure background. The plates were incubated at 37° C. for 72 hours. 50 μl of CellTiter-Glo® Reagent was added to each well. Mix contents for 2 minutes on an orbital shaker to induce cell lysis. Incubate at room temperature for 10 minutes to stabilize luminescent signal. Record luminescence on Paradigm. Cell viability (CV %) was calculated relative to vehicle (DMSO) treated control wells. The IC50 was calculated using GraphPad Prism.

T1 sequence (P07949 29-1114): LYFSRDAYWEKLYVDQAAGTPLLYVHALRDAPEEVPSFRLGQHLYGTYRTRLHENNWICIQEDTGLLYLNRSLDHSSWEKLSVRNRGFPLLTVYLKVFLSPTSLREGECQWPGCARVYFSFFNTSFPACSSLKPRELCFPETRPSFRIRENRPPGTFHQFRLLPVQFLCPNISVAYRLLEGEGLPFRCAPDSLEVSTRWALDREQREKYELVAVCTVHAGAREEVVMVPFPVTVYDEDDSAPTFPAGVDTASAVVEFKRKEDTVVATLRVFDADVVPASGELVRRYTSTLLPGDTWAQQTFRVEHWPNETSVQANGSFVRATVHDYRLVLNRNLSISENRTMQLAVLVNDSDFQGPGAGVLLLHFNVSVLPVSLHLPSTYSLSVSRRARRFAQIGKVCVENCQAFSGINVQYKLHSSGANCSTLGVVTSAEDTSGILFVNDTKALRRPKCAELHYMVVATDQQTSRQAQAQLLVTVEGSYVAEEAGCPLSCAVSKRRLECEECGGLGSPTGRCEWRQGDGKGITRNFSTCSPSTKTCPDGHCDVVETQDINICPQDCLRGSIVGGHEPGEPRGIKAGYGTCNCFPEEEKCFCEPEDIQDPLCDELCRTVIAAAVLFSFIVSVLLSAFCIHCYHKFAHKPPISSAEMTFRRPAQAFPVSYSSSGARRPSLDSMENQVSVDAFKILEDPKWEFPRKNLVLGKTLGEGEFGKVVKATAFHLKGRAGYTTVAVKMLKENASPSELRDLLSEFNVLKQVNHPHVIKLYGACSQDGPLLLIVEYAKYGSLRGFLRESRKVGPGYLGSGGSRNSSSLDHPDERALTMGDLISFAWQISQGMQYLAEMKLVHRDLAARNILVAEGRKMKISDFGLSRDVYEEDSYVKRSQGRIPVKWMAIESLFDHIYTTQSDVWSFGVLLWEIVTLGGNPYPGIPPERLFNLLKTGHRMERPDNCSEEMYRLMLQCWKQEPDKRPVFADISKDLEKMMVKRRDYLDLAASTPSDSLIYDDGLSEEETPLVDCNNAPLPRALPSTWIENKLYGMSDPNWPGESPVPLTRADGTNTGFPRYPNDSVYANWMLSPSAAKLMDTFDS

Structure (SMILES)	IC50 (human RET kinase) [µM]	IC50 (human Aurora B kinase) [µM]	IC50 (BAF3 cells) [µM]	GI50 (BAF3-KIF5B-RET cells) [µM]
COc1ccc(CN2C3CC2CN(c2ccc(-c4cc(-c5cc(C(C)(C)O)n(C)n5)cn5ncc(C#N)c45)cn2)C3)cn1 [Example 4, 6-(5-(2-hydroxypropan-2-yl)-1-methyl-1H-pyrazol-3-yl)-4-(6-(6-((6-methoxypyridin-3-yl)methyl)-3,6-diazabicyclo[3.1.1]heptan-3-yl)pyridin-3-yl)pyrazolo[1,5-a]pyridine-3-carbonitrile]	0.00067	0.128	2.22	0.0007
CC(C)(O)c1ccc(-c2cc(-c3ccc(N4C[C@@H]5[C@@H](CNC(=O)c6ncccc6Cl)[C@@H]5C4)nc3)c3c(C#N)cnn3c2)nc1 [Example 5, 3-chloro-N-(((1R,5S,6s)-3-(5-(3-cyano-6-(5-(2-hydroxypropan-2-yl)pyridin-2-yl)pyrazolo[1,5-a]pyridin-4-yl)pyridin-2-yl)-3-azabicyclo[3.1.0]hexan-6-yl)methyl)picolinamide]	0.0008	0.0195	0.516	0.003
COc1ccc(CN2C3CC2CN(c2ccc(-c4cc(-c5ccc(C(C)(C)O)nc5)cn5ncc(C#N)c45)cn2)C3)cn1 [Example 8, 6-(6-(2-hydroxypropan-2-yl)pyridin-3-yl)-4-(6-(6-((6-methoxypyridin-3-yl)methyl)-3,6-diazabicyclo[3.1.1]heptan-3-yl)pyridin-3-yl)pyrazolo[1,5-a]pyridine-3-carbonitrile]	0.00038	0.045	1.05	0.0014
COc1ccc(CN2C3CC2CN(c2ccc(-c4cc(-c5ccc(C(C)(C)O)s5)cn5ncc(C#N)c45)cn2)C3)cn1 [Example 27, 6-(5-(2-hydroxypropan-2-yl)thiophen-2-yl)-4-(6-(6-((6-methoxypyridin-3-yl)methyl)-3,6-diazabicyclo[3.1.1]heptan-3-yl)pyridin-3-yl)pyrazolo[1,5-a]pyridine-3-carbonitrile]	–	–	0.913	0.0007
COc1ccc(CN2C3CC2CN(c2ccc(-c4cc(-c5cc(C(C)(C)NC(C)=O)n(C)n5)cn5ncc(C#N)c45)cn2)C3)cn1 [Example 28, N-(2-(3-(3-cyano-4-(6-(6-((6-methoxypyridin-3-yl)methyl)-3,6-diazabicyclo[3.1.1]heptan-3-yl)pyridin-3-yl)pyrazolo[1,5-a]pyridin-6-yl)-1-methyl-1H-pyrazol-5-yl)propan-2-yl)acetamide]	–	–	2.33	0.004
COc1ccc(CN2C3CC2CN(c2ccc(-c4cc(-c5ccc(OCC(C)(C)O)cn5)cn5ncc(C#N)c45)cn2)C3)cn1 [Example 32, 6-(5-(2-hydroxy-2-methylpropoxy)pyridin-2-yl)-4-(6-(6-((6-methoxypyridin-3-yl)methyl)-3,6-diazabicyclo[3.1.1]heptan-3-yl)pyridin-3-yl)pyrazolo[1,5-a]pyridine-3-carbonitrile]	–	–	1.62	0.0014
COc1ccc(CN2C3CC2CN(c2ccc(-c4cc(-c5ccc(OCC(C)(C)O)nc5)cn5ncc(C#N)c45)cn2)C3)cn1 [Example 33, 6-(6-(2-hydroxy-2-methylpropoxy)pyridin-3-yl)-4-(6-(6-((6-methoxypyridin-3-yl)methyl)-3,6-diazabicyclo[3.1.1]heptan-3-yl)pyridin-3-yl)pyrazolo[1,5-a]pyridine-3-carbonitrile]	–	–	2.58	0.0051
COc1ccc(CN2C3CC2CN(c2ccc(-c4cc(-c5ccn(CC(C)(C)O)n5)cn5ncc(C#N)c45)cn2)C3)cn1 [Example 34, 6-(1-(2-hydroxy-2-methylpropyl)-1H-pyrazol-3-yl)-4-(6-(6-((6-methoxypyridin-3-yl)methyl)-3,6-diazabicyclo[3.1.1]heptan-3-yl)pyridin-3-yl)pyrazolo[1,5-a]pyridine-3-carbonitrile]	–	–	1.79	0.0007
COc1ccc(CN2C3CC2CN(c2ccc(-c4cc(-c5cnn(CC(C)(C)O)c5)cn5ncc(C#N)c45)cn2)C3)cn1 [Example 35, 6-(1-(2-hydroxy-2-methylpropyl)-1H-pyrazol-4-yl)-4-(6-(6-((6-methoxypyridin-3-yl)methyl)-3,6-diazabicyclo[3.1.1]heptan-3-yl)pyridin-3-yl)pyrazolo[1,5-a]pyridine-3-carbonitrile]	–	–	0.34	0.0005
COc1ccc(CN2C3CC2CN(c2ccc(-c4cc(-c5ccc(S(N)(=O)=O)cn5)cn5ncc(C#N)c45)cn2)C3)cn1 [Example 36, 6-(3-cyano-4-(6-(6-((6-methoxypyridin-3-yl)methyl)-3,6-diazabicyclo[3.1.1]heptan-3-yl)pyridin-3-yl)pyrazolo[1,5-a]pyridin-6-yl)pyridine-3-sulfonamide]	–	–	8.21	0.0166
